Counter-ions that a name gives are not always drawn.

In the first experiment the target is human PDGFRβ (Homo sapiens (Human), UniProt P09619). Put plainly: PDGFRβ kinase assay (PDGFRβ-HTRF). The format is biochemical. The note with it: 10 μM ATP; some mean values from multiple determinations. As to the method: The PDGFRβ-inhibitory activity of the inventive compounds was determined in the PDGFRβ-HTRF assay described hereinafter.
Sequence of human PDGFRβ (P09619 561-1106): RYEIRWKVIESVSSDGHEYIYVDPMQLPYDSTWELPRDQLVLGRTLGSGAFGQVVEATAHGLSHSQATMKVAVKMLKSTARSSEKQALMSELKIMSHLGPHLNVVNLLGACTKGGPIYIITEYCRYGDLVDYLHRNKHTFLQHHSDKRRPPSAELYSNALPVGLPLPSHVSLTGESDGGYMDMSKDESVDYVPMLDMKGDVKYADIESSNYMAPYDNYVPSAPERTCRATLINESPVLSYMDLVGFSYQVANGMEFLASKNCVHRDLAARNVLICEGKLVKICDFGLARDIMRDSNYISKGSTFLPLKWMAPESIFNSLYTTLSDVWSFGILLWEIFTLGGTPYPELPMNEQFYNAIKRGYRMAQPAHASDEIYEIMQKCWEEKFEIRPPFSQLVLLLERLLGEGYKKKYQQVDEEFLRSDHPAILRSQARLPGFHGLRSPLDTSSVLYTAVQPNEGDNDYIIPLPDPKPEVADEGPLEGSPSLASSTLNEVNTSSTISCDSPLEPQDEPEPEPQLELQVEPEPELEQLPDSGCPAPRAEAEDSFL
The kinase used was a recombinant fusion protein composed of N-terminal GST and a C-terminal fragment of human PDGFRβ (amino acids R561-L1106), expressed in baculovirus-infected insect cells (Sf9) and purified by affinity chromatography (from ProQinase GmbH, Freiburg, Germany). The substrate used for the kinase reaction was biotinylated poly-Glu,Tyr (4:1) copolymer (from Cisbio Bioassays, Codolet, France).
For the assay, 50 nl of a 100-fold concentrated solution of the test substance in DMSO was pipetted into a black “low-volume 384 well” microtitre plate (from Greiner Bio-One, Frickenhausen, Germany), then 2 μl of a solution of PDGFRβ in assay buffer [50 mM HEPES/NaOH pH 7.5, 10 mM MgCl2, 2.5 mM dithiothreitol, 0.01% (v/v) Triton-X100 (from Sigma)] was added and the mixture was incubated for 15 min, in order to enable preliminary binding of the substance to the enzyme before the kinase reaction. […] The resulting mixture was incubated at 22° C. for 1 h to allow formation of a complex of the biotinylated phosphorylated substrate and the detection reagents.
Subsequently, the amount of the phosphorylated substrate was evaluated by measuring the resonance energy transfer from the PT66-Eu chelate to the streptavidin-XL665. […] The IC50 values were calculated by a 4-parameter fit.
As usually defined, the IC50 is the midpoint of a concentration-inhibition curve. The compound `Cc1cc(F)c(Nc2ccnc3c2C(=O)Nc2cc(CN(C)CCCO)ccc2N3)cc1O` [Example 221, 4-[(2-Fluoro-5-hydroxy-4-methylphenyl)amino]-8-{[(3-hydroxypropyl)(methyl)amino]methyl}-6,11-dihydro-5H-pyrido[2,3-b][1,5]benzodiazepin-5-one] yielded an IC50 of 1.74 nM.

In the case of `Cc1cc(F)c(Nc2ccnc3c2C(=O)Nc2cc(CN4C[C@@H](O)[C@@H](O)C4)ccc2N3)cc1O` [Example 210], the IC50 came out at 1.03 nM.

For the compound `CCN(CC)CC(C)NCc1ccc2c(c1)NC(=O)c1c(Nc3cc(O)ccc3C)ccnc1N2` (centres unmarked) [Example 112], the IC50 was determined as 2.34 nM.

For the compound `Cc1ccc(O)cc1Nc1ccnc2c1C(=O)Nc1cc(CNCCCCO)ccc1N2` [Example 17, 8-{[(4-Hydroxybutyl)amino]methyl}-4-[(5-hydroxy-2-methylphenyl)amino]-6,11-dihydro-5H-pyrido[2,3-b][1,5]benzodiazepin-5-one], the IC50 turned out to be 5.63 nM.

`Cc1ccc(O)cc1Nc1ccnc2c1C(=O)Nc1cc(CNC3(C)CCS(=O)(=O)C3)ccc1N2` (centres unmarked) [Example 98]: the IC50 was found to be 5.17 nM.

`Cc1ccn(CCCNCc2ccc3c(c2)NC(=O)c2c(Nc4cc(O)ccc4C)ccnc2N3)n1` [Example 101] returned a half-inhibitory concentration (IC50) of 2.98 nM.

For the compound `COCCOCCCNCc1ccc2c(c1)NC(=O)c1c(Nc3cc(O)ccc3C)ccnc1N2` [Example 116], the IC50 stood at 4.75 nM.

Regarding `Cc1cc(F)c(Nc2ccnc3c2C(=O)Nc2cc(C(=O)NC4CCCC(O)C4)ccc2N3)cc1O` (centres unmarked) [Example 81, 4-[(2-Fluoro-5-hydroxy-4-methylphenyl)amino]-N-(3-hydroxycyclohexyl)-5-oxo-6,11-dihydro-5H-pyrido[2,3-b][1,5]benzodiazepine-8-carboxamide], the IC50 was found to be 1.31 nM.

`COc1ccc(NCc2ccc3c(c2)NC(=O)c2c(Nc4cc(O)ccc4C)ccnc2N3)cc1F` [Example 107] gave a half-inhibitory concentration (IC50) of 18.4 nM.

In turn, `COc1cccc(CNCc2ccc3c(c2)NC(=O)c2c(Nc4cc(O)ccc4C)ccnc2N3)c1` [Example 96] yielded an IC50 of 2.1 nM.

`O=C1Nc2cc(CN3CCC(O)CC3)ccc2Nc2nccc(Nc3cc(O)c(Cl)cc3F)c21` [Example 175, 4-[(4-Chloro-2-fluoro-5-hydroxyphenyl)amino]-8-[(4-hydroxypiperidin-1-yl)methyl]-6,11-dihydro-5H-pyrido[2,3-b][1,5]benzodiazepin-5-one] gave an IC50 of 1.26 nM.

The compound `Cc1ccc(O)cc1Nc1ccnc2c1C(=O)Nc1cc(CNCCO)ccc1N2` [Example 24, 8-{[(2-Hydroxyethyl)amino]methyl}-4-[(5-hydroxy-2-methylphenyl)amino]-6,11-dihydro-5H-pyrido[2,3-b][1,5]benzodiazepin-5-one] yielded an IC50 of 4.74 nM.

In turn, `Cc1ccc(O)cc1Nc1ccnc2c1C(=O)Nc1cc(CNCC(C)(C)C)ccc1N2` [Example 142] yielded an IC50 of 2.11 nM.

On to `Cc1ccc(O)cc1Nc1ccnc2c1C(=O)Nc1cc(CN3CCN(CCO)CC3)ccc1N2` [Example 44, 8-{[4-(2-Hydroxyethyl)piperazin-1-yl]methyl}-4-[(5-hydroxy-2-methylphenyl)amino]-6,11-dihydro-5H-pyrido[2,3-b][1,5]benzodiazepin-5-one], for which the IC50 came out at 19.8 nM.

`Cc1ccc(O)cc1Nc1ccnc2c1C(=O)Nc1cc(CNCc3ccccc3)ccc1N2` [Example 145] had an IC50 of 5.82 nM.

Regarding `N#Cc1ccc2c(c1)NC(=O)c1c(Nc3cc(O)c(Cl)cc3F)ccnc1N2` [Example 37, 4-[(4-chloro-2-fluoro-5-hydroxyphenyl)amino]-5-oxo-6,11-dihydro-5H-pyrido[2,3-b][1,5]benzodiazepine-8-carbonitrile], half-maximal inhibition (IC50) required 4.6 nM.

The compound `Cc1cc(F)c(Nc2ccnc3c2C(=O)Nc2cc(CN4CCCC(C(N)=O)C4)ccc2N3)cc1O` (racemic) [Example 57, rac-1-({4-[(2-Fluoro-5-hydroxy-4-methylphenyl)amino]-5-oxo-6,11-dihydro-5H-pyrido[2,3-b][1,5]benzodiazepin-8-yl}methyl)piperidine-3-carboxamide] registered an IC50 of 1.66 nM.

On to `Cc1ccc(O)cc1Nc1ccnc2c1C(=O)Nc1cc(CNCC(C)(C)N(C)C)ccc1N2` [Example 144], for which the IC50 came to 7.72 nM.

For the compound `Cc1ccc(O)cc1Nc1ccnc2c1C(=O)Nc1cc(CNCC(C)C)ccc1N2` [Example 152], half-maximal inhibition (IC50) required 4.42 nM.

`CCOCCC(C)NCc1ccc2c(c1)NC(=O)c1c(Nc3cc(O)ccc3C)ccnc1N2` (centres unmarked) [Example 118] displayed an IC50 of 4.02 nM.

Consider `COC1CCCN(Cc2ccc3c(c2)NC(=O)c2c(Nc4cc(O)c(C)cc4F)ccnc2N3)C1` (racemic) [Example 66, rac-4-[(2-Fluoro-5-hydroxy-4-methylphenyl)amino]-8-[(3-methoxypiperidin-1-yl)methyl]-6,11-dihydro-5H-pyrido[2,3-b][1,5]benzodiazepin-5-one], for which the IC50 was 3.75 nM.

Regarding `N#Cc1ccc2c(c1)NC(=O)c1c(Nc3cccc(O)c3)ccnc1N2` [Example 35, 4-[(3-Hydroxyphenyl)amino]-5-oxo-6,11-dihydro-5H-pyrido[2,3-b][1,5]benzodiazepine-8-carbonitrile], half-maximal inhibition (IC50) required 12.6 nM.

As for `Cc1cc(F)c(Nc2ccnc3c2C(=O)Nc2cc(CN4CCC(O)CC4)ccc2N3)cc1O` [Example 45, 4-[(2-Fluoro-5-hydroxy-4-methylphenyl)amino]-8-[(4-hydroxypiperidin-1-yl)methyl]-6,11-dihydro-5H-pyrido[2,3-b][1,5]benzodiazepin-5-one], the IC50 stood at 0.928 nM.

`CCOC1CCCN(Cc2ccc3c(c2)NC(=O)c2c(Nc4cc(O)c(C)cc4F)ccnc2N3)C1` (racemic) [Example 67, rac-8-[(3-Ethoxypiperidin-1-yl)methyl]-4-[(2-fluoro-5-hydroxy-4-methylphenyl)amino]-6,11-dihydro-5H-pyrido[2,3-b][1,5]benzodiazepin-5-one] showed an IC50 of 2.23 nM.

`Cc1ccc(O)cc1Nc1ccnc2c1C(=O)Nc1cc(CNCC(C)Cn3cccn3)ccc1N2` (centres unmarked) [Example 114] displayed an IC50 of 1.83 nM.

`Cc1ccc(O)cc1Nc1ccnc2c1C(=O)Nc1cc(CNC3CCS(=O)(=O)C3)ccc1N2` (centres unmarked) [Example 113] came in with a concentration for half-maximal inhibition (IC50) of 3.6 nM.

Regarding `CCCc1ccc(Nc2ccnc3c2C(=O)Nc2cc(C#N)ccc2N3)cc1O` [Example 2, 4-[(3-Hydroxy-4-propylphenyl)amino]-5-oxo-6,11-dihydro-5H-pyrido[2,3-b][1,5]benzodiazepine-8-carbonitrile], inhibition was half-maximal at 862 nM (IC50).

`CCN(Cc1ccc2c(c1)NC(=O)c1c(Nc3cc(O)c(C)cc3F)ccnc1N2)CC(C)O` (single isomer, unassigned; ent-8) [Example 205, ent-8-{[Ethyl(2-hydroxypropyl)amino]methyl}-4-[(2-fluoro-5-hydroxy-4-methylphenyl)amino]-6,11-dihydro-5H-pyrido[2,3-b][1,5]benzodiazepin-5-one (Enantiomer 1)] returned a concentration for half-maximal inhibition (IC50) of 1.76 nM.

On to `Cc1ccc(O)cc1Nc1ccnc2c1C(=O)Nc1cc(CNCC3CC3)ccc1N2` [Example 127], for which the IC50 was determined as 3.52 nM.

For `Cc1ccc(O)cc1Nc1ccnc2c1C(=O)Nc1cc(CNCC(F)(F)F)ccc1N2` [Example 14, 4-[(5-Hydroxy-2-methylphenyl)amino]-8-{[(2,2,2-trifluoroethyl)amino]methyl}-6,11-dihydro-5H-pyrido[2,3-b][1,5]benzodiazepin-5-one], the midpoint of inhibition, the IC50, lay at 9.14 nM.

For `Cc1ccc(O)cc1Nc1ccnc2c1C(=O)Nc1cc(CNC3CC3)ccc1N2` [Example 151], the 50% inhibitory concentration (IC50) amounted to 3.71 nM.

`CCN(Cc1ccc2c(c1)NC(=O)c1c(Nc3cc(O)c(C)cc3F)ccnc1N2)CC(C)O` (racemic) [Example 204, rac-8-{[Ethyl(2-hydroxypropyl)amino]methyl}-4-[(2-fluoro-5-hydroxy-4-methylphenyl)amino]-6,11-dihydro-5H-pyrido[2,3-b][1,5]benzodiazepin-5-one] yielded an IC50 of 1.71 nM.

As to `Cc1cc(F)c(Nc2ccnc3c2C(=O)Nc2cc(C(=O)N[C@H]4CC[C@H](O)CC4)ccc2N3)cc1O` [Example 180, 4-[(2-Fluoro-5-hydroxy-4-methylphenyl)amino]-N-(trans-4-hydroxycyclohexyl)-5-oxo-6,11-dihydro-5H-pyrido[2,3-b][1,5]benzodiazepine-8-carboxamide], the IC50 was found to be 2.43 nM.

In turn, `Cc1ccc(O)cc1Nc1ccnc2c1C(=O)Nc1cc(CNC(C)c3ccco3)ccc1N2` (centres unmarked) [Example 132] returned an IC50 of 2.89 nM.

In turn, `Cc1ccc(O)cc1Nc1ccnc2c1C(=O)Nc1cc(CNCC3CNC(=O)C3)ccc1N2` (centres unmarked) [Example 130] yielded a half-inhibitory concentration (IC50) of 2.31 nM.

`Cc1cc(F)c(Nc2ccnc3c2C(=O)Nc2cc(CN4CCN(C)CC4)ccc2N3)cc1O` [Example 46, 4-[(2-Fluoro-5-hydroxy-4-methylphenyl)amino]-8-[(4-methylpiperazin-1-yl)methyl]-6,11-dihydro-5H-pyrido[2,3-b][1,5]benzodiazepin-5-one]: the IC50 amounted to 1.52 nM.

`Cc1ccc(O)cc1Nc1ccnc2c1C(=O)Nc1cc(CNC3CCCC3)ccc1N2` [Example 154] had an IC50 of 2.1 nM.

Staying with this experiment, now noted: 10 μM ATP; some mean values from multiple determinations; acetic acid salt.
As to `Cc1cc(F)c(Nc2ccnc3c2C(=O)Nc2cc(CNC4CCCC4)ccc2N3)cc1O` [Example 34, 8-[(Cyclopentylamino)methyl]-4-[(2-fluoro-5-hydroxy-4-methylphenyl)amino]-6,11-dihydro-5H-pyrido[2,3-b][1,5]benzodiazepin-5-one acetic acid salt], the IC50 is 5.06 nM.

These data come from patent publication US10047096B2, “Substituted pyridobenzodiazepinone-derivatives and use thereof” (Bayer Pharma Aktiengesellschaft, priority 2014, dated 2018).
